Data: patent US20230087844A1, “USE OF N2-QUINCLINE OR ISOQUINOLINE SUBSTITUTED PURINE DERIVATIVES IN CANCER TREATMENT” (SHANGHAI HUAYU BIOTECHNOLOGY CO., LTD., priority 2020, published 2023)
Marks after values point to notes of the source that are not given here.

Key:
leukemia cell lines = assay: MTT tumor cell proliferation, leukemia cell lines (summary); format: cell-based; details: summary of Table 2
Experimental: (§1) as an exemplary compound of formula (I), was tested for its inhibitory effect on tumor cell proliferation in a MTT assay.
(§2) Briefly, cells at the log phase were collected, suspended in the cell culture medium at 4*10^4/ml density, and plated in 96-well plates, 90 μl per well. The plates were kept in a 5% CO2 and 37° C. incubator for 2 hours, and then added with 100 μg/ml, 10 μg/ml, 1 μg/ml, 0.1 μg/ml, 0.01 μg/ml or 0.001 μg/ml Compound A, 4 replicates for each cell at each compound concentration. DMSO was used in the positive control group, and another negative group was also set. After 72 hour incubation in the same incubator, 20 μl 5 mg/ml MTT reagent was added to each well. After another 4 hour incubation, each well was added with 100 μl SDS and further incubated for 12 hours. Absorbance at 570 nm was read in a reader, and IC50 was calculated.

K562 = assay: MTT tumor cell proliferation, K562; format: cell-based; details: Homo sapiens; K562, Chronic myeloid leukemia, 72 hour
Experimental: as §1, §2

MCF-7 = assay: MTT tumor cell proliferation, MCF-7; format: cell-based; details: Homo sapiens, MCF7; MCF-7, Breast cancer, 72 hour
Experimental: as §1, §2

[1] = tested on: SGC-7901 human gastric cancer cells; assay: SGC-7901 gastric cancer xenograft in mice; details: D0, 3, 6, 9, 12; for T/C: D18
Experimental: Mice body weights and tumor sizes were measured 2 to 3 times a week. The tumor volume (V) was calculated as (length× width^2)/2. T/C (%) was calculated as (T-T0)/(C-C0)×100, wherein T and C represented the tumor volumes in the administration group and the vehicle group respectively at the end of the experiment, while T0 and C0 represented the tumor volumes in the administration group and the vehicle group respectively at the beginning of the experiment. And RTV was calculated as (Tumor volume at Day N/Tumor volume at Day 0).
BALB/cA-nude mice, 5-6 weeks old, purchased from Shanghai SLAC Laboratory Animal Co., Ltd, were subcutaneously inoculated with SGC-7901 human gastric cancer cells (from Cell Bank, Chinese Academy of Sciences).
Mice body weights and tumor sizes were measured 2 to 3 times a week. The tumor volume, T/C and RTV were calculated as described above. Mice were sacrificed on Day 18.

Ls-174t = assay: MTT tumor cell proliferation, Ls-174t; format: cell-based; details: Homo sapiens, LS174T, Colon cancer, 72 hour
Experimental: as §1, §2

PI3K β isoform = PI3K β isoform (Homo sapiens, UniProt P42338); details: one of the other three isoforms
PI3K β isoform, sequence (P42338 whole entry, canonical isoform): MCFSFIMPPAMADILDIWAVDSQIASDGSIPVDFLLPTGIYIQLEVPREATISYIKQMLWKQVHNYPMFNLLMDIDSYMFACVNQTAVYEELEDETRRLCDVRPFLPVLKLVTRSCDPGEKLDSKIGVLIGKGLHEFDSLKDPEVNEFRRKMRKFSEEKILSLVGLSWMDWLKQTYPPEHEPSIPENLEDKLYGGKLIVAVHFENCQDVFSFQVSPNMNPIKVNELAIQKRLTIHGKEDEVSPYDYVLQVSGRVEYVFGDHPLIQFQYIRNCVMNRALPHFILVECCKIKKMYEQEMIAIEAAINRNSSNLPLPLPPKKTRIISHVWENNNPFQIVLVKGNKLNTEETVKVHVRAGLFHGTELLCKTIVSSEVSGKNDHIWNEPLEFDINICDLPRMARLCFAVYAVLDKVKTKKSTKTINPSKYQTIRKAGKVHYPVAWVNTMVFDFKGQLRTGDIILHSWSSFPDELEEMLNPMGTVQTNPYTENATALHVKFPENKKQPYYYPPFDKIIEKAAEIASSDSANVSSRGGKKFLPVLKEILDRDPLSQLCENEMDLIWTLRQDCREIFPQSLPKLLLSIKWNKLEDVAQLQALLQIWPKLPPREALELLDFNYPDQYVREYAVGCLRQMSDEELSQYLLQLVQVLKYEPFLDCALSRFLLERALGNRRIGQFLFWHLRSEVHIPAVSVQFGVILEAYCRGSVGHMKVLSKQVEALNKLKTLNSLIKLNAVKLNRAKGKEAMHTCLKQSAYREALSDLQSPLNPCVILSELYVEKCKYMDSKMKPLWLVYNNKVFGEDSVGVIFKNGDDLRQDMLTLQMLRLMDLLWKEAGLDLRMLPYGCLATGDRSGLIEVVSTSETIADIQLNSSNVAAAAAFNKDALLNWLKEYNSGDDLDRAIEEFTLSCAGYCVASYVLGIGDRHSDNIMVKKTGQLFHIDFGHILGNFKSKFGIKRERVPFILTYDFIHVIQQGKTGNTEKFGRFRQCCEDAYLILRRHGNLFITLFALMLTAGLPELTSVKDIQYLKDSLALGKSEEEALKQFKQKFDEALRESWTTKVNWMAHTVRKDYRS
PI3K β isoform, sequence (P27986 whole entry partner, canonical isoform): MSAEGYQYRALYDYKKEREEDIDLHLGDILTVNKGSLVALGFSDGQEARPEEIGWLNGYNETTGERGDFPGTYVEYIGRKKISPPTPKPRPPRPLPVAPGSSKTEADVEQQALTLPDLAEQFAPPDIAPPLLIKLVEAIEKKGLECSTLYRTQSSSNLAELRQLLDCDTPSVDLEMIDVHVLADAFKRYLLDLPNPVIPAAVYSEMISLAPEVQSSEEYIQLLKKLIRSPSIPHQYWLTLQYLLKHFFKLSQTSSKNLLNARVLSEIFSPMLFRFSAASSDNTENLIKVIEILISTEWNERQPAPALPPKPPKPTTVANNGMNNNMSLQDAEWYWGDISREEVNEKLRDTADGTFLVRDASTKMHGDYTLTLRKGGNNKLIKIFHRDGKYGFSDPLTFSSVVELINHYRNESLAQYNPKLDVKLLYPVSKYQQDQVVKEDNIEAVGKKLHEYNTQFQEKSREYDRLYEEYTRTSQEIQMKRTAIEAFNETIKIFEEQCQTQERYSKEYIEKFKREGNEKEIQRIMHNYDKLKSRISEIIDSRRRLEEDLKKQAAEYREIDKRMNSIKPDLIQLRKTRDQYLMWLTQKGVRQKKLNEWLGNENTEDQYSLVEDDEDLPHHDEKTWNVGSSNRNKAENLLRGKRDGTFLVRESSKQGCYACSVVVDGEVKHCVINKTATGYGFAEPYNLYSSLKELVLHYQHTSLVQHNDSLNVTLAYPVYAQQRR

[2] = tested on: Colon26 murine colon cancer cells; assay: Colon26 colon cancer growth in mice; format: in vivo, F1 mice; details: D1-7; for TGI / Tumor weight: Day 8
Experimental: F1 mice, 18-22 g, purchased from Shanghai Bi-Kai Laboratory Animal Co., Ltd, were subcutaneously inoculated with Colon26 murine colon cancer cells (from Cell Bank, Chinese Academy of Sciences) at the right axilla. […] Tumor growth inhibition (TGI) was calculated.

PI3K α isoform = PI3K α isoform (Homo sapiens, UniProt P42336); details: one of the other three isoforms
PI3K α isoform, sequence (P42336 whole entry, canonical isoform): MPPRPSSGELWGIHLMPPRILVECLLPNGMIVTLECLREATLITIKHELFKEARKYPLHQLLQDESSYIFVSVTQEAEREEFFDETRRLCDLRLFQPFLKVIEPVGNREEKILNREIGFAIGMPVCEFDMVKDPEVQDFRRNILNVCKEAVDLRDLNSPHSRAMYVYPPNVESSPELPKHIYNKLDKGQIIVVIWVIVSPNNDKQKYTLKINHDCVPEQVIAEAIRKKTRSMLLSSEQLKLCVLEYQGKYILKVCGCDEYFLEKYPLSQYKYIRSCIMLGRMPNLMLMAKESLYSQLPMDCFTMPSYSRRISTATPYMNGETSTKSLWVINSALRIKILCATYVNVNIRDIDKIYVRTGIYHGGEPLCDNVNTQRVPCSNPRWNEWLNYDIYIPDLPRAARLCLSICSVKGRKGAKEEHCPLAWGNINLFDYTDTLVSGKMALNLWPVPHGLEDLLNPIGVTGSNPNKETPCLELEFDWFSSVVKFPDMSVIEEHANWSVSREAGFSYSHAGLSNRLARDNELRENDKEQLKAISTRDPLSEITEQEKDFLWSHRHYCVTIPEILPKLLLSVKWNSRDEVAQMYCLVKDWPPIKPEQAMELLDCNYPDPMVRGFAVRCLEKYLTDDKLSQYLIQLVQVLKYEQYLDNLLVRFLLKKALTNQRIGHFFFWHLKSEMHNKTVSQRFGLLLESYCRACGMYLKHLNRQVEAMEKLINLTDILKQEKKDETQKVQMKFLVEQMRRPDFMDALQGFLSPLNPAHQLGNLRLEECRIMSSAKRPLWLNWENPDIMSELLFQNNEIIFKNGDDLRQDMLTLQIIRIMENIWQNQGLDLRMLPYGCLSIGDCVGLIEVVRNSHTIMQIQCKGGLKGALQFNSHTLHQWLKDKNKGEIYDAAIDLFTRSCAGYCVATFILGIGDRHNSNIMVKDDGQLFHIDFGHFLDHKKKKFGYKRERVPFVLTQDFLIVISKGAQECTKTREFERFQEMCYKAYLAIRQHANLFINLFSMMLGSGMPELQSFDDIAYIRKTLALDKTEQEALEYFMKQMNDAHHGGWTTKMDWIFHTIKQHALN
PI3K α isoform, sequence (P27986 whole entry partner, canonical isoform): as the sequence (P27986 whole entry partner, canonical isoform) above

NCI-H460 = assay: MTT tumor cell proliferation, NCI-H460; format: cell-based; details: Homo sapiens; NCI-H460, Lung cancer, 72 hour
Experimental: as §1, §2

THP-1 = assay: MTT tumor cell proliferation, THP-1; format: cell-based; details: Homo sapiens; THP-1, Acute monocytic leukemia, 72 hour
Experimental: as §1, §2

H441 = assay: MTT tumor cell proliferation, H441; format: cell-based; details: Homo sapiens, NCI-H441; H441, Lung cancer, 72 hour
Experimental: as §1, §2

SK-BR-3 = assay: MTT tumor cell proliferation, SK-BR-3; format: cell-based; details: Homo sapiens; SK-BR-3, Breast cancer, 72 hour
Experimental: as §1, §2

KDR (VEGFR-2) = KDR (VEGFR-2) (Homo sapiens, UniProt P35968); assay: Inhibition of KDR phosphorylation; format: biochemical
KDR (VEGFR-2), sequence (P35968 20-1356, species assumed): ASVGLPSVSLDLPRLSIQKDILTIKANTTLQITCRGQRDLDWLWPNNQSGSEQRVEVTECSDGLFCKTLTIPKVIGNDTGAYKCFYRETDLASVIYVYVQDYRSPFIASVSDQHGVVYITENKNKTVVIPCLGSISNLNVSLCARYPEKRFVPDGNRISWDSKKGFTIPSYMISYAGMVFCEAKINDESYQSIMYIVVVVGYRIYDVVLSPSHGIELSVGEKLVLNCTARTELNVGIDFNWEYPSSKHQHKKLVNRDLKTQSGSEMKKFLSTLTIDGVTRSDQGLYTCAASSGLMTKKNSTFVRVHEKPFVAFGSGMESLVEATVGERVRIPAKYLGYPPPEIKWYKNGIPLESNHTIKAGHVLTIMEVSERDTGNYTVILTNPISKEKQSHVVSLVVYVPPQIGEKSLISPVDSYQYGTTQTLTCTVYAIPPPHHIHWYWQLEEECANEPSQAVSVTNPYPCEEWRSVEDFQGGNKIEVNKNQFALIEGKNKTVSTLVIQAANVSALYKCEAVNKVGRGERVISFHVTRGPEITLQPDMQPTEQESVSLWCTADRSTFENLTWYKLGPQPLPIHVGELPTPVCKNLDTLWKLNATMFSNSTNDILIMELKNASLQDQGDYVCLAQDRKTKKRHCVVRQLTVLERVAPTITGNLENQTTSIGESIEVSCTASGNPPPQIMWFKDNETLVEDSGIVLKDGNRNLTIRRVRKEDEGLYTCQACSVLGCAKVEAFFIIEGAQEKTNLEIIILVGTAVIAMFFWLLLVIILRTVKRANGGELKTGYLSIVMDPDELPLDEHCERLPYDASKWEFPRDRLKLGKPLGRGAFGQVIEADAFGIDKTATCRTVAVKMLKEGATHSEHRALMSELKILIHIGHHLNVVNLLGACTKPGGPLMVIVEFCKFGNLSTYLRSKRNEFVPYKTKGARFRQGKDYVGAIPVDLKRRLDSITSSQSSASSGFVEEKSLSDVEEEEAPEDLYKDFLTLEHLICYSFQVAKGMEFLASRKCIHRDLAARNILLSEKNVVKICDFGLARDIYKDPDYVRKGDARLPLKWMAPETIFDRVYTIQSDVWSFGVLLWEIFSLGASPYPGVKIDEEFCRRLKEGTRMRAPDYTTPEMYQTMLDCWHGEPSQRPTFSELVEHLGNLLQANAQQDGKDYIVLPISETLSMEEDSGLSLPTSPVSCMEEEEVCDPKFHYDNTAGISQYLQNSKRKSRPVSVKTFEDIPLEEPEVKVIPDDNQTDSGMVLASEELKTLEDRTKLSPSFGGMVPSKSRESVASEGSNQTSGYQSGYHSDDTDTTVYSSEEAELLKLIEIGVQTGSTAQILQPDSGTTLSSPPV
Excerpt: FLT3 is a class III receptor tyrosine kinase and plays an important role in hematopoiesis and lymphocyte development. […] Wang et al found over 60% of 82 leukemia cell lines were FLT3 positive (Wang Y et al., (2006) Journal of Experimental Hematology 14(3): 446-449). FLT3-internal tandem duplication (ITD) is the most commonly seen mutation in AML patients, with about 17-34% of AML patients carrying such a mutation (Jia H et al., (2018) Medical Laboratory Science and Clinics 19(5): 39). […] Thus, the compounds of the disclosure with high inhibitory effect on FLT3 function may be good candidates for leukemia treatment.

H446 = assay: Tumor cell death by MTT, H446; format: cell-based, human; details: 20 nM
Experimental: The in vitro inhibitory effect of Compound A alone or in combination with a PARP inhibitor on tumor cell growth was tested using human small cell lung cancer (SCLC) cell lines, including H69 (ATCC® HTB-119™), H526 (ATCC® CRL-5811™) and H446 (TCHu196, National Collection of Authenticated Cell Cultures).
Briefly, the cells were seeded into a 96-well dish with RPMI-1640 (10-040-CV, Coming cellgro) containing 10% fetal bovine serum (10270-106, GIBCO), 1% penicillin and 1% streptomycin (BaSalMedia, S110JV), at an initial density of 3×10^3 cells per well ([…]), and cultured at a 37° C., 5% CO2 humidified incubator for 24 hours. Then, the culture media were added with Compound A (final concentration at 20 nM), olaparib (APEXBIO, A4154, a PARP inhibitor, final concentration at 10 μM), Compound A + olaparib (final concentrations at20 nM and 10 μM), or PBS (vehicle), respectively, and the cells were cultured for 48 hours. Then, cell viability was determined by MTT. The test was done in triplicate.
Cell death rate was calculated by the following formula.
Cell death rate=[1−(ODtest-ODvehicle)]×100%
Cell death rates were analyzed using student's t-test, and group differences were deemed statistically significant when the p-value was lower than 0.05. Zheng-Jun Jin's Q value was calculated using the formula Q=EA+B/(EA+EB-EA×EB) to assess the combined effect of Compound A and the PARP inhibitor, wherein EA+B, EA, and EB referred to the cell death rates caused by the combined treatment, Compound A treatment and PARP inhibitor treatment, respectively. A Q value higher than 1.15 meant a synergistic […] effect.
Another PARP inhibitor, rucaparib (APEXBIO, A4156), was tested alone or with Compound A for inhibitory effect on tumor cell growth, following the protocol of Example 9.

MV-4-11 = assay: MTT tumor cell proliferation, MV-4-11; format: cell-based; details: Homo sapiens, MV4-11; MV-4-11, Acute myeloid leukemia, 72 hour
Experimental: as §1, §2

c1cnc2ccc(Nc3nc(NC4CC4)c4nc[nH]c4n3)cc2c1 [Compound A]
IC50 (leukemia cell lines): ≤ 1.6 µM | IC50 (K562): 1.2 ± 0.1 µM | IC50 (MCF-7): 26.5 ± 7.7 µM | RTV at D18 ([1]; 15 mg/kg P.O.): 5.57 ± 2.74 | Tumor volume D0 ([1]; 15 mg/kg P.O.): 162 ± 32 mm^3 | Tumor volume D18 ([1]; 15 mg/kg P.O.): 845 ± 349 mm^3 | T/C ([1]; 15 mg/kg P.O.): 68.2% | RTV at D18 ([1]; 30 mg/kg P.O.): 3.73 ± 1.16 | Tumor volume D0 ([1]; 30 mg/kg P.O.): 197 ± 45 mm^3 | Tumor volume D18 ([1]; 30 mg/kg P.O.): 701 ± 142 mm^3 | T/C ([1]; 30 mg/kg P.O.): 45.7* % | RTV at D18 ([1]; 60 mg/kg P.O.): 2.58 ± 1.07 | Tumor volume D0 ([1]; 60 mg/kg P.O.): 215 ± 49 mm^3 | Tumor volume D18 ([1]; 60 mg/kg P.O.): 545 ± 233 mm^3 | T/C ([1]; 60 mg/kg P.O.): 31.6* % | IC50 (Ls-174t): 5.9 ± 0.9 µM | EC50, PI3K β isoform (PI3K β isoform): at the μM level | Body weight (without tumor) at D8 ([2]; 30 mg/kg P.O.): 21.57 g | TGI ([2]; 30 mg/kg P.O.): 31.88% | Tumor weight ([2]; 30 mg/kg P.O.): 1.39 g | Body weight (without tumor) at D8 ([2]; 60 mg/kg P.O.): 15.96 g | TGI ([2]; 60 mg/kg P.O.): 76.12% | Tumor weight ([2]; 60 mg/kg P.O.): 0.49 g | EC50, PI3K α isoform (PI3K α isoform): at the μM level | IC50 (NCI-H460): 4 ± 0.4 µM | IC50 (THP-1): 1.6 ± 1.6 µM | IC50 (H441): 15.9 ± 9.5 µM | IC50 (SK-BR-3): 16.5 ± 0.9 µM | EC50 (KDR (VEGFR-2)): ~1 µM | Cell Death Rate/% 1 (H446; 48 hours, Table 10): 13.5% | Cell Death Rate/% 2 (H446; 48 hours, Table 10): 13.18% | Cell Death Rate/% 3 (H446; 48 hours, Table 10): 13.67% | Cell Death Rate/% mean (H446; 48 hours, Table 10): 13.45% | Cell Death Rate/% 1 (H446; Example 10, Table 11): 15% | Cell Death Rate/% 2 (H446; Example 10, Table 11): 14.62% | Cell Death Rate/% 3 (H446; Example 10, Table 11): 15.17% | Cell Death Rate/% mean (H446; Example 10, Table 11): 14.93% | IC50 (MV-4-11): 0.3 ± 0.1 µM
